Experiments:
[1] = cited from earlier work
[2] = system: angiotensin conversion enzyme (ACE); conditions: cited from earlier work
[3] = system: mouses; assay: Subacute toxicity, 3 weeks oral; format: in vivo; conditions: 2 g/kg/day oral, mouse, as opposed to control
Experimental: Compound (1) was administered during 3 weeks to mouses at an oral dose of 2 g/kg/day.
Moreover, no signs of tolerance, habituation or other weaning phenomenon were observed on animals submitted to a reversibility test after treatment.

[4] = molecular target: T1, ACE (angiotensin convertase) (Mus musculus, UniProt P09470); assay: ACE inhibition in vivo, mouse striatum (Table 1 (d)); conditions: for ED50: iv, 0.5 h, read-out: ACE In vivo(d) (DE50, mg/kg)
T1 construct: Activities measured on mouse striatum membranes in vitro or 30; from tissue; host or cells: mouse striatum (membranes)
T1 sequence (P09470 35-1312): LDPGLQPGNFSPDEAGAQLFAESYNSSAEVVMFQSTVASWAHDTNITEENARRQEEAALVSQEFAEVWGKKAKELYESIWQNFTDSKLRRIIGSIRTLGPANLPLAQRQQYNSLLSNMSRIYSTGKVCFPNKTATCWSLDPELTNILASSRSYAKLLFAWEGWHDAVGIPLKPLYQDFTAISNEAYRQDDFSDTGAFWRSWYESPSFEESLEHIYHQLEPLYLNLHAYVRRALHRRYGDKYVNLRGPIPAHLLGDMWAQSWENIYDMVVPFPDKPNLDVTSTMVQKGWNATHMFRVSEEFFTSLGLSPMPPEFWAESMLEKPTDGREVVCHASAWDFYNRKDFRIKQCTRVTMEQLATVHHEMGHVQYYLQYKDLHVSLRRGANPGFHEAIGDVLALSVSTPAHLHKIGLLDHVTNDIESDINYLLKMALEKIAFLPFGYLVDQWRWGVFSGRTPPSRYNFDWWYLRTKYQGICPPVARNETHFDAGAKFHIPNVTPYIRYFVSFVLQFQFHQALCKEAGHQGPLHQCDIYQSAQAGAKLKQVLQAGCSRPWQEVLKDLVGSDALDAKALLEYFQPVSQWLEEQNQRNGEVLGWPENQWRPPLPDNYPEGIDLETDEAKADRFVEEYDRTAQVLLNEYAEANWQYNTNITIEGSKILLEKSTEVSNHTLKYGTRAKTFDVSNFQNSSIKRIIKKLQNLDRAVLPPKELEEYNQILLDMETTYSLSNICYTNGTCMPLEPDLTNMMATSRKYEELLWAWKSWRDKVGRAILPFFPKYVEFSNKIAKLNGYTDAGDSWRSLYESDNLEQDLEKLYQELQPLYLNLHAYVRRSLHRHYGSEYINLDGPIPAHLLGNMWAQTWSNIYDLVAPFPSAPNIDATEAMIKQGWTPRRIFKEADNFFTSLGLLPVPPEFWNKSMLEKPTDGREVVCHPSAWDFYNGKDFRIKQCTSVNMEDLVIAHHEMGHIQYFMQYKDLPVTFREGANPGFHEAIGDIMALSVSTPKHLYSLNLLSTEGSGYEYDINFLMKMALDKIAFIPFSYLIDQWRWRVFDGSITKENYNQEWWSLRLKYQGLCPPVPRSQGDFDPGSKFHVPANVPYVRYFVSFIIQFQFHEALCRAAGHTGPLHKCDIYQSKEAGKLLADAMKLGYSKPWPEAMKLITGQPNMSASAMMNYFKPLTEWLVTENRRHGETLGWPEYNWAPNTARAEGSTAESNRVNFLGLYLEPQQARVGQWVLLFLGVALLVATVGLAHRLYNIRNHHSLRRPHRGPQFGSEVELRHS
From the text: (§1) Dosage of `enkephalinase` activity and angiotensin convertase (ACE) activity with determination of the effect of inhibitors both in vitro and on mouses in vivo: inhibition of the same enzymes and protection of natriuretic auricular factor.
(§2) ENKEPHALINASE AND ACE INHIBITING ACTIVITIES IN IN VITRO AND IN VIVO STRIATUM
(§3) (c) and (d)Activities measured on mouse striatum membranes in vitro or 30
(§4) mn after i.v. administration according to Yang and Neff, J. Neurochem, […]

[5] = molecular target: T1, ACE (angiotensin convertase); assay: ACE inhibition in vitro on mouse striatum membranes (Table 1 (c)); format: biochemical
From the text: as §1, §2, §3, §4

[6] = system: enkephalinase; assay: Enkephalinase inhibition in vivo in mouse striatum (Table 1 (b)); conditions: 30 mn after i.v. administration
From the text: as §1, §2
(b)Activity measured in mouse striatum 30 mn after i.v. administration
according to LlorensCortes et al., Eur. J. Pharmacol., 1985, 119, 183.

[7] = molecular target: T2, enkephalinase (Mus musculus, UniProt Q61391); assay: Enkephalinase inhibition in vitro on striatum membranes (Table 1 (a)); format: biochemical
T2 construct: Activity measured on striatum membranes according to Llorens et al., J; from tissue; host or cells: striatum membranes
T2 sequence (Q61391 1-750): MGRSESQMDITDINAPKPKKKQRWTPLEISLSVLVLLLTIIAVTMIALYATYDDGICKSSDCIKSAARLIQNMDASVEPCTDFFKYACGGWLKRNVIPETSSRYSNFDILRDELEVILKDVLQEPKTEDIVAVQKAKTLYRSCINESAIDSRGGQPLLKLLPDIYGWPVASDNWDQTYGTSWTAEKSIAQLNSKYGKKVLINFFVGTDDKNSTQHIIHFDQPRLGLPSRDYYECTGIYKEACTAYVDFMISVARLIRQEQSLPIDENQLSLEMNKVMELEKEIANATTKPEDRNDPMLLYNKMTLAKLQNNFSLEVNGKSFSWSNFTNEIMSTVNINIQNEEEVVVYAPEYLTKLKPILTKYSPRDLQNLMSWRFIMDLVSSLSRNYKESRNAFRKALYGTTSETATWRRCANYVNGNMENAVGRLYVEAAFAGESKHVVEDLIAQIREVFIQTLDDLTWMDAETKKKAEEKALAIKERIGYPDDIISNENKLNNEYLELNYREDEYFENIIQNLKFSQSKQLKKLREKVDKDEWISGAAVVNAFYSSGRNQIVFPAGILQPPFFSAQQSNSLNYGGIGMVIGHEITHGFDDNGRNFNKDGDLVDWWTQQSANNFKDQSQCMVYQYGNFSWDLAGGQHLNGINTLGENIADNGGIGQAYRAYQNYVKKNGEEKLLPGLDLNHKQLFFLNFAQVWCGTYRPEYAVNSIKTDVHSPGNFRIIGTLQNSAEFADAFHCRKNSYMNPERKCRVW
From the text: as §1, §2
(a)Activity measured on striatum membranes according to Llorens et al., J

[8] = system: cats; assay: Anti-inflammatory activity in experimental cholecystitis; format: in vivo, cat; conditions: 3 mg/kg i.v.
[9] = system: natriuretic auricular factor (ANF) in the kidney; assay: Protection of natriuretic auricular factor (ANF) in the kidney in vivo (Table 2 (b)); design: species or system mouse; conditions: for Increase of ANF (%): renal 125I ANF 2 min after i.v. administration of 10^6 cpm, compound 0.3 mg/kg orally 90 min before, 0.3 mg/kg
Experimental: as §1
(§5) ENKEPHALINASE INHIBITING ACTIVITIES AND PROTECTION OF NATRIURETIC AURICULAR FACTOR (ANF) IN THE KIDNEY IN VIVO
(b) Increase in the renal level of ^125 I ANF, as measured 2 min afte
i.v. administration of 10^6 cpm to mouses having been given compounds
1 or 2, 90 min before (0.3 mg/kg, orally).
Compound 2 (0.3 mg/kg, p.o.) induces in the same test an increase of renal ^125 I ANF of 75±7% after 30 min and […] after 180 min.

[10] = system: renal enkephalinase; assay: Inhibition of linking between Acetorphan and renal enkephalinase after oral administration (Table 2 (a)); format: in vivo, mouse; conditions: kidney, 0.3 mg/kg oral, 90 minutes after administration
From the text: as §1, §5
(a) Inhibition of the linking between […] Acetorphan and renal
enkephalinase measured according to S. de la Baume, M. Tuong, F. Brion, J
C. Schwartz (J.P.E.T. 1988, forthcoming) 90 minutes after oral
administration of compounds 1 or 2 at a dose of 0.3 mg/kg.

[11] = system: cats; assay: Inhibition of stimulated gastric acid secretion; format: in vivo, cat; conditions: 0.5, 1.5 and 5 mg/kg i.v.; p<0.05
[12] = system: mouses; assay: Analgesic activity, plate jump test at 55° C.; format: in vivo, mouse
Experimental: III. ANALGESIC ACTIVITIES MEASURED ON PLATE JUMP TEST AT 55° C. AFTER ADMINISTRATION TO MOUSES.
(Eddy and Leimbach, J. Pharmacol. Exp. Ther. 1953, 107 385).

[13] = system: dogs; assay: Colic motive activity (motive index) after standard meal; format: in vivo, dog
From the text: Motive index (as evaluated with a restraint gauge).
Influence of previous intravenous (i.v.) or oral (p.o.) administration of
compound or the variations of the colic motive index after standard meal

[14] = system: plasma ANF; assay: Clinical pharmacology: plasma natriuretic auricular factor (ANF); format: in vivo, human; conditions: 30 mg oral, 1 hr after administration, vs placebo, p<0.05
Experimental: (§6) With healthy volunteers (9 male subjects) enkephalinase and natriuretic auricular factor (ANF) plasma levels as well as diuresis and natruresis are measured after oral administration of either a placebo, or (S) acetorphan.

[15] = system: healthy volunteers; assay: Clinical pharmacology: diuresis and natriuresis; format: in vivo, human; conditions: 30 mg oral, between 2 and 8 hours after administration, p<0.05
Experimental: as §6

[16] = system: plasma enkephalinase; assay: Clinical pharmacology: plasma enkephalinase; format: in vivo, human; conditions: 30 mg oral, 1 hr after administration, vs placebo, p<0.001
Experimental: as §6

[17] = mouse, mouse striatum, 30 mn after i.v. administration

CC(=O)SCC(Cc1ccccc1)C(=O)NCC(=O)OCc1ccccc1 (racemic) [Acetorphan, (R,S) N-/2-acetylthiomethyl-1-oxo-3-phenyl propyl/-glycine benzyl ester]
dose active intraveinously ([1]; i.v.): around 1 mg/kg

O=C(O)CNC(=O)C(CS)Cc1ccccc1 (racemic) [thiorphan]
inhibition of angiotensin conversion enzyme [2]: less powerful inhibitor of angiotensin conversion enzyme | cardiovascular activity ([1]; at a higher dose): at a higher dose, a cardiovascular activity | active dose systemically, times higher than Acetorphan ([1]; systemically, relative to Acetorphan i.v. (around 1 mg/kg)): about 50 times | analgesic properties ([1]; used intraveinously or intracerebroventricularly): analgesic properties

CC(=O)SCC(Cc1ccccc1)C(=O)NCC(=O)OCc1ccccc1 (single isomer, unassigned) [Compound (1)]
Organ weight and pathological examination [3]: no difference as opposed to control | ACE-inhibiting effect ([4]; mouse, in vivo): lack of ACE-inhibiting effect | ED50 [4, 17]: > 20 mg/kg | IC50 [5]: 5000 nM | Enkephalinase In vivo(b) (DE50, mg/kg) ([6]; 30 min): 0.8 mg/kg | IC50 [7]: 2 nM | hypersecretion induced by an inflammation of the gall bladder [8]: significatively decreases hypersecretion | Increase of ANF (%) [9]: inactive | Inhibition of enkephalinase (%) [10]: 15 ± 6% | stimulation of gastric acid secretion induced by Pentagastrin, 2-deoxyglucose and histamin [11]: significatively decreased | Reaction time ([12]; 5 mg/kg i.v., 20' before test): 85 ± 5 s | Reaction time ([12]; 30 mg/kg oral, 1 h before test): 80 ± 6 s | Reaction time ([12]; 100 mg/kg oral, 1 h before test): 140 ± 10 s | Motive index, After meal (0/+2 h) ([13]; 1 mg/kg i.v.): 15.2 ± 2.4 | Motive index, After meal (+2/10 h) ([13]; 1 mg/kg i.v.): 18.3 ± 3.1 | Motive index, Before meal (-2/0) ([13]; 1 mg/kg i.v.): 5.9 ± 0.7 | Motive index, After meal (0/+2 h) ([13]; 10 mg/kg p.o.): 17.4 ± 2.7 | Motive index, After meal (+2/10 h) ([13]; 10 mg/kg p.o.): 21.5 ± 4.6 | Motive index, Before meal (-2/0) ([13]; 10 mg/kg p.o.): 6.4 ± 0.8 | colic motricity as an answer to the intake of food ([13]; dogs, postprandial periods): potentiates an increase in colic motricity

CC(=O)SCC(Cc1ccccc1)C(=O)NCC(=O)OCc1ccccc1 (single isomer, unassigned) [Compound (2)]
ACE In vivo(d) (DE50, mg/kg) ([4]; mouse striatum, 30 mn after i.v. administration, 30 min): 10 mg/kg | increase of plasma ANF [14]: 50% | increase of diuresis [15]: 42% | increase of natriuresis [15]: 46% | IC50 [5]: 100 nM | Enkephalinase In vivo(b) (DE50, mg/kg) ([6]; 30 min): 0.4 mg/kg | IC50 [7]: 3 nM | increase of renal 125I ANF ([9]; 0.3 mg/kg p.o., after 30 min): 75±7% | Increase of ANF (%) [9]: 33 ± 3% | Inhibition of enkephalinase (%) [10]: 54 ± 6% | stimulation of gastric acid secretion induced by Pentagastrin, 2-deoxyglucose and histamin [11]: significatively decreased | Reaction time ([12]; 30 mg/kg oral, 1 h before test): 75 ± 5 s | Motive index, After meal (0/+2 h) ([13]; 5 mg/kg p.o.): 16.3 ± 2.5 | Motive index, After meal (+2/10 h) ([13]; 5 mg/kg p.o.): 20.1 ± 3.7 | Motive index, Before meal (-2/0) ([13]; 5 mg/kg p.o.): 6.2 ± 0.9 | inhibition of plasma enkephalinase [16]: 62%

COC(=O)[C@H](C)NC(=O)[C@H](CSC(C)=O)Cc1ccccc1 [(5), (R) N-/2-acetylthiomethyl-1-oxo-3-phenyl propyl/-(S)-alanine methyl ester]
ED50 [4, 17]: > 20 mg/kg | IC50 [5]: 2000 nM | Enkephalinase In vivo(b) (DE50, mg/kg) [6]: 0.9 mg/kg | IC50 [7]: 3 nM

COC(=O)[C@H](C)NC(=O)[C@@H](CSC(C)=O)Cc1ccccc1 [(6), (S) N-/2-acetylthiomethyl-1-oxo-3-phenylpropyl/-(S)-alanine methyl ester]
ED50 [4, 17]: 4 mg/kg | IC50 [5]: 12 nM | Enkephalinase In vivo(b) (DE50, mg/kg) [6]: 0.3 mg/kg | IC50 [7]: 1.2 nM

O=C(O)CNC(=O)[C@H](CS)Cc1ccccc1 [(R) isomer]
analgesic activity ([1]; intracerebral, separate enantiomers of thiorphan): principally to the (R) isomer

O=C(O)CNC(=O)[C@@H](CS)Cc1ccccc1 [(S) isomer]
ACE's inhibiting activity ([2]; separate enantiomers of thiorphan): almost exclusively attributable to the (S) isomer
